Drawing on paper PMC9898755 (The Journal of Biological Chemistry, 2023), this text covers inhibition for one compound.

Test [1] addresses T1, Sec14^V155F (Saccharomyces cerevisiae, UniProt P24280, V155F).
T1 sequence (P24280 2-304 V155F): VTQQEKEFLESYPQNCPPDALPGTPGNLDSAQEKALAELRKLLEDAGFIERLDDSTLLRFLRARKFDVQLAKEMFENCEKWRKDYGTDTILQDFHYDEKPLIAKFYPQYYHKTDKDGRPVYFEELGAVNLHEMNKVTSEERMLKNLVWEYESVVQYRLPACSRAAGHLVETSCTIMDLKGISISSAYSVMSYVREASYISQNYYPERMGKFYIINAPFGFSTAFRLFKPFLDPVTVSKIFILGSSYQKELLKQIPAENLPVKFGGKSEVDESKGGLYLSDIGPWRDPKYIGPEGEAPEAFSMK
The test is described as follows: [3H]-PtdIns-transfer assay, […] PITP, […] himbacine, […] inhibition. Type of test: biochemical. Conditions: read-out: % inhibition at 20 μM.

Test [2] addresses T2, Sec14^V154F (Saccharomyces cerevisiae, UniProt P24280, V154F).
T2 sequence (P24280 2-304 V154F): T1 sequence (P24280 2-304 V155F)
Described as above. The format is biochemical. The settings on record: read-out: % inhibition at 20 μM.

As usually defined, the inhibition is the change of the read-out against control, counted positive when it falls. For the compound `C[C@@H]1OC(=O)[C@H]2C[C@H]3CCCC[C@@H]3[C@@H](/C=C/[C@H]3CCC[C@H](C)N3C)[C@@H]12` [himbacine], the inhibition at 20 µM in test [1] is 73 ± 2.1%; in test [2], 71 ± 1.2%.
